Experimental data as given in ChEMBL document CHEMBL1287680, “C-11 diamino cryptolepine derivatives NSC748392, NSC748393, and NSC748394: anticancer profile and G-quadruplex stabilization” (Bioorg Med Chem Lett, 2010).

Experiments:
RXF 393 = test: cells; details: Homo sapiens
Description: Anticancer activity against human RXF393 cells

SNB-19 = test: cells; details: Homo sapiens
Description: Anticancer activity against human SNB19 cells

BT-549 = test: cells; details: Homo sapiens
Description: Anticancer activity against human BT549 cells

SF-268 = test: cells; details: Homo sapiens
Description: Anticancer activity against human SF268 cells

COLO 205 = test: cells; details: Homo sapiens
Description: Anticancer activity against human COLO205 cells

ACHN = test: cells; details: Homo sapiens
Description: Anticancer activity against human ACHN cells

SF-295 = test: cells; details: Homo sapiens
Description: Anticancer activity against human SF295 cells

IGROV-1 = test: cells; details: Homo sapiens
Description: Anticancer activity against human IGROV1 cells

OVCAR-8 = test: cells; details: Homo sapiens
Description: Anticancer activity against human OVCAR8 cells

T47D = test: cells; details: Homo sapiens
Description: Anticancer activity against human T47D cells

HCC 2998 = test: cells; details: Homo sapiens
Description: Anticancer activity against human HCC2998 cells

TK-10 = test: cells; details: Homo sapiens
Description: Anticancer activity against human TK10 cells

SR = test: cells; details: Homo sapiens
Description: Anticancer activity against human SR cells

OVCAR-4 = test: cells; details: Homo sapiens
Description: Anticancer activity against human OVCAR4 cells

MDA-MB-468 = test: cells; details: Homo sapiens
Description: Anticancer activity against human MDA-MB-468 cells

UACC-62 = test: cells; details: Homo sapiens
Description: Anticancer activity against human UACC62 cells

HOP-92 = test: cells; details: Homo sapiens
Description: Anticancer activity against human HOP92 cells

HT-29 = test: cells; details: Homo sapiens
Description: Anticancer activity against human HT-29 cells

A549 = test: cells; details: Homo sapiens
Description: Anticancer activity against human A549 cells

LOX IMVI = test: cells; details: Homo sapiens
Description: Anticancer activity against human LOXIMVI cells

MDA-MB-231 = test: cells; details: Homo sapiens
Description: Anticancer activity against human MDA-MB-231 cells

SW-620 = test: cells; details: Homo sapiens
Description: Anticancer activity against human SW620 cells

K562 = test: cells; details: Homo sapiens
Description: Anticancer activity against human K562 cells

HOP-62 = test: cells; details: Homo sapiens
Description: Anticancer activity against human HOP62 cells

SK-OV-3 = test: cells; details: Homo sapiens
Description: Anticancer activity against human SKOV3 cells

Malme-3M = test: cells; details: Homo sapiens
Description: Anticancer activity against human MALME-3M cells

SK-MEL-5 = test: cells; details: Homo sapiens
Description: Anticancer activity against human SK-MEL-5 cells

in vivo = details: mouse, cancer cell lines
Description: Toxicity in cancer cells containing hollow fiber implanted mouse

NCI-H226 = test: cells; details: Homo sapiens
Description: Anticancer activity against human NCI-H226 cells

SF-539 = test: cells; details: Homo sapiens
Description: Anticancer activity against human SF539 cells

DU-145 = test: cells; details: Homo sapiens
Description: Anticancer activity against human DU145 cells

cells = details: Homo sapiens
Description: Anticancer activity against human RPMI8266 cells

Description for physchem: Dissociation constant, pKa of the compound by UV-visible spectroscopy

## CCN(CC)CCCCNc1c2ccccc2[n+](C)c2c1[nH]c1ccccc12.[Cl-]
RXF 393; RXF 393, read-out: pGI50 (converted)
  GI50: 389 nM
RXF 393; RXF 393, read-out: pLC50 (converted)
  CC50: 8130 nM
RXF 393; RXF 393, read-out: pTGI
  TGI: 1510 nM
SNB-19; SNB-19, read-out: pGI50 (converted)
  GI50: 224 nM
SNB-19; SNB-19, read-out: pLC50 (converted)
  CC50: 89100 nM
SNB-19; SNB-19, read-out: pTGI
  TGI: 871 nM
BT-549; BT-549, read-out: pGI50 (converted)
  GI50: 1380 nM
BT-549; BT-549, read-out: pLC50 (converted)
  CC50: 7940 nM
BT-549; BT-549, read-out: pTGI
  TGI: 3310 nM
SF-268; SF-268, read-out: pGI50 (converted)
  GI50: 224 nM
SF-268; SF-268, read-out: pLC50 (converted)
  CC50: 33100 nM
SF-268; SF-268, read-out: pTGI
  TGI: 1580 nM
COLO 205; COLO 205, read-out: pGI50 (converted)
  GI50: 158 nM
COLO 205; COLO 205, read-out: pLC50 (converted)
  CC50: 2950 nM
COLO 205; COLO 205, read-out: pTGI
  TGI: 676 nM
ACHN; read-out: pGI50 (converted)
  GI50: 2950 nM
ACHN; read-out: pLC50 (converted)
  CC50: > 100000 nM
ACHN; read-out: pTGI
  TGI: 22400 nM
SF-295; SF-295, read-out: pGI50 (converted)
  GI50: 603 nM
SF-295; SF-295, read-out: pLC50 (converted)
  CC50: > 100000 nM
SF-295; SF-295, read-out: pTGI
  TGI: 5010 nM
IGROV-1; IGROV-1, read-out: pGI50 (converted)
  GI50: 468 nM
IGROV-1; IGROV-1, read-out: pLC50 (converted)
  CC50: > 100000 nM
IGROV-1; IGROV-1, read-out: pTGI
  TGI: 7410 nM
OVCAR-8; OVCAR-8, read-out: pGI50 (converted)
  GI50: 617 nM
OVCAR-8; OVCAR-8, read-out: pLC50 (converted)
  CC50: > 100000 nM
OVCAR-8; OVCAR-8, read-out: pTGI
  TGI: 10200 nM
T47D; read-out: pGI50 (converted)
  GI50: 129 nM
T47D; read-out: pLC50 (converted)
  CC50: 25700 nM
T47D; read-out: pTGI
  TGI: 776 nM
HCC 2998; HCC 2998, read-out: pGI50 (converted)
  GI50: 269 nM
HCC 2998; HCC 2998, read-out: pLC50 (converted)
  CC50: 3630 nM
HCC 2998; HCC 2998, read-out: pTGI
  TGI: 759 nM
TK-10; TK-10, read-out: pGI50 (converted)
  GI50: 2140 nM
TK-10; TK-10, read-out: pLC50 (converted)
  CC50: > 100000 nM
TK-10; TK-10, read-out: pTGI
  TGI: 8910 nM
SR; read-out: pGI50 (converted)
  GI50: 372 nM
SR; read-out: pLC50 (converted)
  CC50: > 100000 nM
SR; read-out: pTGI
  TGI: 42700 nM
OVCAR-4; OVCAR-4, read-out: pGI50 (converted)
  GI50: 437 nM
OVCAR-4; OVCAR-4, read-out: pTGI
  TGI: 1700 nM
physchem
  pKa: 11.6
MDA-MB-468; MDA-MB-468, read-out: pGI50 (converted)
  GI50: 204 nM
MDA-MB-468; MDA-MB-468, read-out: pLC50 (converted)
  CC50: 2140 nM
MDA-MB-468; MDA-MB-468, read-out: pTGI
  TGI: 550 nM
UACC-62; UACC-62, read-out: pGI50 (converted)
  GI50: 83.2 nM
UACC-62; UACC-62, read-out: pLC50 (converted)
  CC50: 589 nM
UACC-62; UACC-62, read-out: pTGI
  TGI: 234 nM
HOP-92; HOP-92, read-out: pGI50 (converted)
  GI50: 263 nM
HOP-92; HOP-92, read-out: pLC50 (converted)
  CC50: > 100000 nM
HOP-92; HOP-92, read-out: pTGI
  TGI: 955 nM
HT-29; HT-29, read-out: pGI50 (converted)
  GI50: 251 nM
HT-29; HT-29, read-out: pLC50 (converted)
  CC50: > 100000 nM
HT-29; HT-29, read-out: pTGI
  TGI: 1910 nM
A549; A549, read-out: pGI50 (converted)
  GI50: 52.5 nM
A549; A549, read-out: pLC50 (converted)
  CC50: > 100000 nM
A549; A549, read-out: pTGI
  TGI: 15500 nM
LOX IMVI; read-out: pGI50 (converted)
  GI50: 331 nM
LOX IMVI; read-out: pLC50 (converted)
  CC50: 7410 nM
LOX IMVI; read-out: pTGI
  TGI: 1410 nM
MDA-MB-231; MDA-MB-231, read-out: pGI50 (converted)
  GI50: > 100000 nM
MDA-MB-231; MDA-MB-231, read-out: pLC50 (converted)
  CC50: 100000 nM
MDA-MB-231; MDA-MB-231, read-out: pTGI
  TGI: > 100000 nM
SW-620; SW-620, read-out: pGI50 (converted)
  GI50: 339 nM
SW-620; SW-620, read-out: pLC50 (converted)
  CC50: > 100000 nM
SW-620; SW-620, read-out: pTGI
  TGI: 5250 nM
K562; K562, read-out: pLC50 (converted)
  CC50: > 100000 nM
K562; K562, read-out: pTGI
  TGI: > 100000 nM
HOP-62; HOP-62, read-out: pGI50 (converted)
  GI50: 1100 nM
HOP-62; HOP-62, read-out: pLC50 (converted)
  CC50: 61700 nM
HOP-62; HOP-62, read-out: pTGI
  TGI: 4470 nM
SK-OV-3; SK-OV-3, read-out: pGI50 (converted)
  GI50: 251 nM
SK-OV-3; SK-OV-3, read-out: pLC50 (converted)
  CC50: 100000 nM
SK-OV-3; SK-OV-3, read-out: pTGI
  TGI: 1820 nM
Malme-3M; read-out: pGI50 (converted)
  GI50: 204 nM
Malme-3M; read-out: pLC50 (converted)
  CC50: 2510 nM
Malme-3M; read-out: pTGI
  TGI: 646 nM
SK-MEL-5; SK-MEL-5, read-out: pGI50 (converted)
  GI50: 219 nM
SK-MEL-5; SK-MEL-5, read-out: pLC50 (converted)
  CC50: 2240 nM
SK-MEL-5; SK-MEL-5, read-out: pTGI
  TGI: 617 nM
In vivo
  MTD: 50 mg/kg
NCI-H226; NCI-H226, read-out: pGI50 (converted)
  GI50: 166 nM
NCI-H226; NCI-H226, read-out: pLC50 (converted)
  CC50: > 100000 nM
NCI-H226; NCI-H226, read-out: pTGI
  TGI: 676 nM
SF-539; SF-539, read-out: pGI50 (converted)
  GI50: 427 nM
SF-539; SF-539, read-out: pLC50 (converted)
  CC50: 4070 nM
SF-539; SF-539, read-out: pTGI
  TGI: 1620 nM
DU-145; DU-145, read-out: pGI50 (converted)
  GI50: 170 nM
DU-145; DU-145, read-out: pLC50 (converted)
  CC50: 89100 nM
DU-145; DU-145, read-out: pTGI
  TGI: 10000 nM
cells; RPMI8266, read-out: pGI50 (converted)
  GI50: 288 nM
cells; RPMI8266, read-out: pLC50 (converted)
  CC50: > 100000 nM
cells; RPMI8266, read-out: pTGI
  TGI: 1660 nM
